Reference: patent publication US6300327A, “Compositions and methods for potentiation of neurotrophin activity” (The University of Southern California, priority 1997, dated 2001)

Legend:
[1] = system: trk; test: trk tyrosine phosphorylation in PC12 cells (immunoprecipitation, anti-phosphotyrosine immunoblot); assay type: cell-based
Description: To measure the status of trk tyrosine phosphorylation, PC12 cells were lysed and immunoprecipitated with anti-trk serum. The trk proteins were subjected to 7.5% SDS-PAGE and analyzed by immunoblotting with anti-phosphotyrosine antibodies as described in detail in the literature [Kaplan, D. R. et al., "PDGF beta receptor stimulates tyrosine phosphorylation of GAP and association of GAP with a signaling complex," Cell 61:125-133 (1990)]. Tyrosine phosphorylation of cellular proteins was assayed by probing Western blots of lysates of PC12 cells incubated with K-252b and NT-3 or NGF with anti-phosphotyrosine antibodies. Phospholipase C gammal was identified in these blots as described elsewhere [Vetter, M.L. et al., "Nerve growth factor rapidly stimulates tyrosine phosphorylation of phospholipase C-gammal by a kinase activity associated with the product of trk protooncogene," Proc. Natl Acad. Sci. USA 88:5650-5654 (1991)].
(§1) Experiments on PC12 cells confirmed observations made on primary neuron cultures. Treatment with K-252b stimulated NT-3 induced neurite outgrowth and trk tyrosine phosphorylation in PC12 cells while inhibiting NGF induced effects. PC12 cells were incubated for 48 hours with K-252b (50 nM) and NT-3 or NGF (50 ng/ml). FIG. 4A illustrates the % cells with neurites after 48 hours incubation. Neurites were scored if they were a length of one cell body or more. PC12 cells were subsequently lysed and immunoprecipitated with anti-trk serum. trk proteins were subjected to SDS-PAGE and analyzed by immunoblotting with anti-phosphotyrosine antibodies (FIG. 4B). Lane 1, NT-3 +K-252b; lane 2, NT-3; lane 3, NGF +K-252b; lane 4, NGF. For FIG. 4C, PC12 cells were incubated for 1 hour in K-252b (50 nM or 10 μM) and with NT-3 or NGF for 5 minutes prior to lysis; other methods were the same as described for FIG. 4B. Lane 1, NT-3+10 μM K-252b; lane 2, NT-3±50 nM K-252b; lane 3, NT-3; lane 4, NGF+10 μM K-252b; lane 5, NGF+50 nM K-252b; lane 6, NGF; lane 7, untreated control.

[2] = system: midbrain dopaminergic neurons (cultures of ventral mesencephalon); test: Dopamine uptake in primary cultures of fetal rat ventral mesencephalon; assay type: cell-based; details: for trophic action on dopaminergic neurons (dopamine uptake): growth factor alone
Description: (§2) Primary cultures of fetal rat brain septal and mesencephalic cells were prepared in a heretofore known manner [Knusel et al., supra]. Briefly, defined areas were dissected from fetal rat brains (Wistar, E15-16, Charles River, Mass.). The septal area contained the cholinergic neurons from septum, diagonal band of Broca and nucleus basalis. The ventral mesencephalon containing the dopaminergic neurons of the substantia nigra and the ventral tegmental area was dissected and dissociated mechanically. The cells were plated in 16 mm multiwell plates precoated with polyethyleneimine (1 mg/ml, 37° C., overnight), containing 0.5 ml modified L-15 medium supplemented with 5% heat inactivated horse serum and 0.5% heat inactivated fetal calf serum. Modified L-15 was prepared [Knusel et al., "Selective and Nonselective Stimulation of Central Cholinergic and dopaminergic Development in vitro by Nerve Growth Factor, Basic Fibroblast Growth Factor, Epidermal Growth Factor, Insulin and the Insulin-like Growth Factors I and II," J. Neurosci. 10:558-570 (1990)] by adding various amino acids, vitamins, antibiotics, glucose and NaHCO3 to Leibovitz's L-15 medium (Gibco, Grand Island, N.Y.). Plating densities were 4×10^5 cells/cm^2 for basal forebrain cultures and 3×10^5 cells/cm^2 for mesencephalic cultures. Of these cells, 0.5 to 1% were cholinergic or dopaminergic, respectively. Growth factors were typically added on the second day of culture and the cells were grown for 5 or more days. For ChAT assays tissue was homogenized in 250 μl of 50 mM Tris-HCl buffer, pH 6.0 with 0.3% Triton X-100. [1-^14 C]acetylcoenzyme A (NEN) concentration was 20 μM and specific activity 4.09 Ci/mol. To measure dopamine uptake, cultures were preincubated for 5 min at 37° C. with 250 μl incubation solution (5 mM glucose, 1 mM ascorbic acid in PBS) containing 1 mM pargyline. [^3 H]dopamine (37 Ci/mmol) was then added to give a final concentration of 50 nM and the cultures were incubated for another 15 minutes. Blanks were obtained by incubating cells at 0° C.
In Table 1, dopamine uptake is given as fmol/min/culture dish. Cultures were grown in 24-well plates for 7 days in L-15 medium with 5% horse and 0.5% fetal bovine serum and treated with growth factors and K-252b from the second day of culture. rhBDNF, 200 ng/ml; des-IGF-1, 1 μg/ml; n=4; *different from respective control group, p <0.01 (Student's t-test). The apparent difference between control cultures grown in presence and absence of K-252b was statistically not significant. The experiment shown is a representative case of a total of 5 independent experiments.

[3] = system: chick dorsal root ganglia neurons (DRG); test: Survival of dissociated chick DRG neurons (embryonic day 9); assay type: cell-based; details: growth factor alone, embryonic day 9 DRG cultures
Description: DRGs of embryonic day 9 chicks were dissected and dissociated using enzymatic and mechanical procedures as described in the literature [Rosenthal, A. et al., "Primary Structure and Biological Activity of a Novel Human Neurotrophic Factor," Neuron 4:767-773 (1990)]. 1800 neurons were plated per well in 96-well tissue culture plates pretreated with polyornithine (500 μg/ml) and laminin (10 μg/ml). Cells were incubated for 48 hrs with or without growth factors and the indicated concentrations of K-252b. Phase-bright cells with elaborated neurites 5× the diameter of the cell bodies were then counted.
Similar to the findings obtained in primary cultures of brain cholinergic neurons, low concentration of K-252b (50 nM) potentiated the survival promoting action of a maximally effective concentration of NT-3 (FIG. 3). Survival of dissociated chick DRG neurons in presence of rhNGF (100 ng/ml) or rhNT-3 (100 ng/ml) and K-252b is illustrated in FIG. 3; concentrations on the horizontal axis are for K-252b. The columns represent means +SEMs. […] High concentrations of K-252b (10 μM) inhibited the action of NGF on sensory neurons, as found for cholinergic neurons (FIG. 3).

[4] = system: forebrain cholinergic neurons (cultures of rat basal forebrain); test: ChAT activity in primary cultures of fetal rat basal forebrain (septal) cholinergic neurons treated with neurotrophins and K-252 compounds; assay type: cell-based; details: for NT-3 potentiation (ChAT, cholinergic neurons): 200 ng/ml NT-3 and increasing concentrations of compound (FIG. 6); for ED50, stimulation of ChAT activity: mean±S.E., n=8
Description: Recombinant human NGF (rhNGF), BDNF (rhBDNF), and NT-3 (rhNT-3) and K-252b were added to primary cultures of fetal rat brain neurons containing either forebrain cholinergic or midbrain dopaminergic neurons. A broad range of concentrations of K-252b were tested in presence of 50 ng/ml rhNGF, 200 ng/ml rhBDNF and 1 μg/ml rhNT-3, growth factor concentrations producing maximal trophic actions on cholinergic neurons. The trophic action was monitored by measuring the activity of ChAT, a parameter reflecting both survival and transmitter-specific differentiation of cholinergic cells.
as §2
FIG. 1 illustrates levels of ChAT activity in cultures of rat basal forebrain treated with rhNGF, rhBDNF, or rhNT- and K-252b. Growth factors were added on the second day of culture and the cells were grown for 5 days. Growth factor concentrations producing maximal elevations of ChAT activity were used. In FIG. 1, .largecircle. represents the control; .quadrature., 50 ng/ml rhNGF; Δ, 200 ng/ml rhBDNF; and .tangle-soliddn., 1 μg/ml rhNT-3. The ChAT stimulation mediated by all three neurotrophins was inhibited by K-252b at concentrations above 200 nM. […] N=4 per data point. Error bars represent SEMs and were omitted where they would have appeared smaller than the symbol.
These compounds were accordingly tested for possible NT-3 potentiation at lower concentrations than necessary for NGF inhibition. Culture conditions were as described in Example 1. Cultures were untreated (controls) or treated with 200 ng/ml NT-3 and increasing concentrations of the inhibitors. The findings are shown in FIG. 6, in which "Stau", "K2a", "K2b", "K57", "K58", "K59" represent, respectively, staurosporine, K-252a, K-252b, KT5720, KT5823, and KT5296. […] Staurosporine and KT5296 were ineffective.

[5] = Cytotoxicity in vitro; assay type: cell-based
[6] = system: PC12 cells; test: Neurite outgrowth of PC12 cells; assay type: cell-based; details: NT-3 alone
Description: PC12 cells were grown as described earlier [Kaplan et al., 1990, 1991a, b]. To assess effects on neurite outgrowth, cells were incubated for 48 hours with K-252b (50 nM) and NT-3 or NGF (50 ng/ml). Neurites were scored if they were a length of one cell body or more.
as §1

[7] = system: PC12 cells; details: cited from earlier work
[8] = system: phosphorylation of selected proteins; details: cited from earlier work
[9] = system: PC12 pheochromocytoma cells; details: into neuron-like cells; cited from earlier work

Molecule: NGF: recombinant human nerve growth factor
- trk tyrosine phosphorylation by growth factor alone ([1]; 48 hours): strongly stimulated
- trk tyrosine phosphorylation by growth factor alone ([1]; acute, 5 minutes): pronounced increase
- trophic action on dopaminergic neurons (dopamine uptake) [2]: not
- promotion of neuronal survival [3]: most effective

Molecule: CCCCCCOC(=O)C1(O)CC2OC1(C)n1c3ccccc3c3c4c(c5c6ccccc6n2c5c31)C(=O)NC4 (stereo not drawn) [KT5720]
- NT-3 potentiation (ChAT, cholinergic neurons) [4]: potentiation similar to K-252b

Molecule: CN[C@@H]1C[C@H]2O[C@@](C)([C@@H]1OC)n1c3ccccc3c3c4c(c5c6ccccc6n2c5c31)C(=O)NC4 [staurosporine, reference compound]
- cytotoxicity [5]: cytotoxic
- NT-3 potentiation (ChAT, cholinergic neurons) [4]: ineffective
- selective inhibition of NGF ([4]; central cholinergic neurons): selectively inhibit NGF

Molecule: COC(=O)C1(OC)CC2OC1(C)n1c3ccccc3c3c4c(c5c6ccccc6n2c5c31)C(=O)N(C)C4 (stereo not drawn) [KT5823]
- NT-3 potentiation (ChAT, cholinergic neurons) [4]: potentiation similar to K-252b

Molecule: NT-3: recombinant human neurotrophin-3
- trk tyrosine phosphorylation by growth factor alone ([1]; 48 hours): no phosphorylation was detectable
- trk tyrosine phosphorylation by growth factor alone ([1]; acute, 5 minutes): minimal
- trophic action on dopaminergic neurons (dopamine uptake) [2]: not
- promotion of neuronal survival [3]: moderate effect
- neurite outgrowth induced by growth factor alone [6]: low levels
- ED50, stimulation of ChAT activity ([4]; NT-3 + 50 nM K-252b): 0.0143 ± 0.0016 µg/mL
- ED50, stimulation of ChAT activity ([4]; NT-3 alone): 0.175 ± 0.0726 µg/mL
- elevation of ChAT activity relative to the NGF-induced elevation ([4]; NT-3 by itself): approximately 20%

Molecule: COC(=O)C1(O)CC2OC1(C)n1c3ccccc3c3c4c(c5c6ccccc6n2c5c31)C(=O)NC4 (stereo not drawn) [K-252a]
- cytotoxicity [5]: cytotoxic
- effect on binding of 125I-NGF to PC12 cells [7]: does not interfere
- effect on NGF stimulated phosphorylation of selected proteins ([8]; NGF stimulated): inhibits
- effect on bFGF or EGF stimulated phosphorylation of selected proteins ([8]; bFGF or EGF stimulated): not
- effect on NGF induced morphological transformation of PC12 cells [9]: prevents
- NT-3 potentiation (ChAT, cholinergic neurons) [4]: potentiation similar to K-252b
- effect on trophic action of NGF on cholinergic neurons (ChAT) ([4]; relatively high dosages): completely and selectively prevent

B1: rhBDNF: recombinant human brain-derived neurotrophic factor (protein, UniProt P23560 19-247, looked up)
Neurotrophic factor BDNF …: APMKEANIRGQGGLAYPGVRTHGTLESVNGPKAGSRGLTSLADTFEHVIEELLDEDQKVRPNEENNKDADLYTSRVMLSSQVPLEPPLLFLLEEYKNYLDAANMSMRVRRHSDPARRGELSVCDSISEWVTAADKKTAVDMSGGTVTVLEKVPVSKGQLKQYFYETKCNPMGYTKEGCRGIDKRHWNSQCRTTQSYVRALTMDSKKRIGWRFIRIDTSCVCTLTIKRGR
- Dopamine uptake, % of Control ([2]; No K-252b, rhBDNF 200 ng/ml or des-IGF-1 1 μg/ml): 183%
- Dopamine uptake, Mean ± SEM ([2]; No K-252b, rhBDNF 200 ng/ml or des-IGF-1 1 μg/ml, n=4, 7 days): 28.0 ± 0.3 fmol/min/culture dish
- trophic action on dopaminergic neurons (dopamine uptake) [2]: trophically acts
